Tests used:
[1] = 298.15 K; 101.33 kPa; Liquid
[2] = xn = mol fraction of the nth substance listed; conditions: 298.15 K, 101.33 kPa, Liquid
[3] = relative permittivity at various frequencies (dimensionless); xn = mol fraction of the nth substance listed; conditions: 298.15 K, 101.33 kPa, Liquid, Frequency=0.03 MHz, Parallel plate capacitor

CCCCO [butan-1-ol]
Conditions	mass density [kg/m3]
[1]	805.767

CCCCCCCCCCO [decan-1-ol]
Conditions	mass density [kg/m3]
[1]	826.421

CCCCCCCCCCO [decan-1-ol] + CCCCCCCCCCCC
Conditions	mass density, [2] [kg/m3]	relative permittivity, [3]
x1 = 0.001264	745.351	–
x1 = 0.001971	–	2.00974
x1 = 0.002235	745.401	–
x1 = 0.002902	–	2.01098
x1 = 0.003662	–	2.01199
x1 = 0.004525	–	2.01314
x1 = 0.00462	745.527	–
x1 = 0.005614	–	2.01459
x1 = 0.006788	–	2.01613
x1 = 0.007983	–	2.01764
x1 = 0.009268	–	2.0192
x1 = 0.01089	–	2.02107
x1 = 0.01183	745.934	–
x1 = 0.01283	–	2.02321
x1 = 0.01445	–	2.02492
x1 = 0.01654	–	2.027
x1 = 0.01864	–	2.029
x1 = 0.02121	–	2.03137
x1 = 0.02459	–	2.03426
x1 = 0.02958	–	2.03864
x1 = 0.0323	747.221	–
x1 = 0.03739	–	2.04514
x1 = 0.04685	–	2.05286
x1 = 0.05669	748.861	2.06088
x1 = 0.06704	–	2.06945
x1 = 0.07856	–	2.07915
x1 = 0.08334	750.666	–
x1 = 0.08846	–	2.08773
x1 = 0.1051	–	2.10262
x1 = 0.1069	752.273	–

CCCCCCCCCCCC [dodecane]
Conditions	mass density [kg/m3]
[1]	745.435

CCCCCCCCCCCC [dodecane] + CCCCCO
Conditions	mass density [kg/m3]	relative permittivity
[2], x2 = 0.00199	745.463	–
[2], x2 = 0.00476	745.503	–
[2], x2 = 0.00753	745.546	–
[2], x2 = 0.01643	745.714	–
[2], x2 = 0.02691	745.951	–
[2], x2 = 0.03525	746.159	–
[2], x2 = 0.05055	746.571	–
[2], x2 = 0.06514	746.983	–
[2], x2 = 0.08115	747.444	–
[2], x2 = 0.09931	747.979	–
[3], x2 = 0.000482	–	2.00767
[3], x2 = 0.001089	–	2.00844
[3], x2 = 0.001796	–	2.00932
[3], x2 = 0.002589	–	2.01032
[3], x2 = 0.00344	–	2.0114
[3], x2 = 0.004549	–	2.0128
[3], x2 = 0.005875	–	2.01448
[3], x2 = 0.007295	–	2.01623
[3], x2 = 0.009216	–	2.0185
[3], x2 = 0.01162	–	2.02114
[3], x2 = 0.0141	–	2.02365
[3], x2 = 0.01688	–	2.02629
[3], x2 = 0.0211	–	2.03003
[3], x2 = 0.02571	–	2.03388
[3], x2 = 0.03208	–	2.03903
[3], x2 = 0.03962	–	2.045
[3], x2 = 0.04963	–	2.05298
[3], x2 = 0.05931	–	2.0609
[3], x2 = 0.07029	–	2.07011
[3], x2 = 0.08177	–	2.08023
[3], x2 = 0.09402	–	2.09162
[3], x2 = 0.1068	–	2.10429

CCCCCCCCCCCC [dodecane] + CCCCO
Conditions	mass density [kg/m3]	relative permittivity
[2], x2 = 0.00247	745.45	–
[2], x2 = 0.00337	745.455	–
[2], x2 = 0.00504	745.466	–
[2], x2 = 0.0089	745.497	–
[2], x2 = 0.01274	745.535	–
[2], x2 = 0.01568	745.569	–
[2], x2 = 0.02553	745.703	–
[2], x2 = 0.04126	745.979	–
[2], x2 = 0.06044	746.372	–
[2], x2 = 0.07754	746.736	–
[2], x2 = 0.1034	747.278	–
[3], x2 = 0.000394	–	2.00775
[3], x2 = 0.001092	–	2.00861
[3], x2 = 0.001852	–	2.00955
[3], x2 = 0.002663	–	2.01056
[3], x2 = 0.003575	–	2.01169
[3], x2 = 0.004582	–	2.01295
[3], x2 = 0.005742	–	2.01438
[3], x2 = 0.007082	–	2.016
[3], x2 = 0.008478	–	2.01762
[3], x2 = 0.009996	–	2.0193
[3], x2 = 0.01196	–	2.02134
[3], x2 = 0.01472	–	2.02405
[3], x2 = 0.01783	–	2.02693
[3], x2 = 0.02067	–	2.02939
[3], x2 = 0.0262	–	2.03399
[3], x2 = 0.03349	–	2.03984
[3], x2 = 0.04201	–	2.04663
[3], x2 = 0.05197	–	2.05466
[3], x2 = 0.06201	–	2.06298
[3], x2 = 0.07269	–	2.07228
[3], x2 = 0.08613	–	2.08475
[3], x2 = 0.09876	–	2.09732

CCCCCCCCCCCC [dodecane] + CCCO
Conditions	mass density [kg/m3]	relative permittivity
[2], x2 = 0.00273	745.43	–
[2], x2 = 0.00429	745.426	–
[2], x2 = 0.007	745.424	–
[2], x2 = 0.01162	745.429	–
[2], x2 = 0.0181	745.456	–
[2], x2 = 0.0248	745.504	–
[2], x2 = 0.04304	745.689	–
[2], x2 = 0.06062	745.916	–
[2], x2 = 0.07866	746.164	–
[2], x2 = 0.1025	746.495	–
[3], x2 = 0.001113	–	2.00841
[3], x2 = 0.001805	–	2.00926
[3], x2 = 0.00262	–	2.01026
[3], x2 = 0.003582	–	2.01146
[3], x2 = 0.004766	–	2.01292
[3], x2 = 0.006045	–	2.01449
[3], x2 = 0.00741	–	2.01613
[3], x2 = 0.00918	–	2.01815
[3], x2 = 0.01131	–	2.0204
[3], x2 = 0.01408	–	2.02313
[3], x2 = 0.01818	–	2.02685
[3], x2 = 0.0234	–	2.03119
[3], x2 = 0.02953	–	2.03612
[3], x2 = 0.03486	–	2.04033
[3], x2 = 0.04243	–	2.04635
[3], x2 = 0.05033	–	2.05272
[3], x2 = 0.06022	–	2.06108
[3], x2 = 0.07048	–	2.07019
[3], x2 = 0.08292	–	2.08206
[3], x2 = 0.09516	–	2.09474
[3], x2 = 0.11	–	2.11157

CCCCCCCCCCCC [dodecane] + CCO
Conditions	mass density [kg/m3]	relative permittivity
[2], x2 = 0.00284	745.404	–
[2], x2 = 0.0035	745.397	–
[2], x2 = 0.00482	745.386	–
[2], x2 = 0.0076	745.363	–
[2], x2 = 0.01169	745.338	–
[2], x2 = 0.01342	745.329	–
[2], x2 = 0.0189	745.313	–
[2], x2 = 0.02678	745.305	–
[2], x2 = 0.04127	745.348	–
[2], x2 = 0.06055	745.432	–
[2], x2 = 0.08084	745.514	–
[2], x2 = 0.09645	745.601	–
[3], x2 = 0.000779	–	2.00812
[3], x2 = 0.001608	–	2.00915
[3], x2 = 0.002571	–	2.01035
[3], x2 = 0.003578	–	2.0116
[3], x2 = 0.004642	–	2.01293
[3], x2 = 0.005982	–	2.01453
[3], x2 = 0.007701	–	2.01653
[3], x2 = 0.009387	–	2.0184
[3], x2 = 0.01111	–	2.02022
[3], x2 = 0.01308	–	2.02209
[3], x2 = 0.01589	–	2.02461
[3], x2 = 0.02008	–	2.02815
[3], x2 = 0.02502	–	2.03214
[3], x2 = 0.03098	–	2.03689
[3], x2 = 0.03829	–	2.04274
[3], x2 = 0.04601	–	2.04907
[3], x2 = 0.055	–	2.05682
[3], x2 = 0.06553	–	2.06649
[3], x2 = 0.07632	–	2.07716
[3], x2 = 0.08814	–	2.08986
[3], x2 = 0.1017	–	2.10596

Reference: the NIST ThermoML archive (doi:10.1021/je050116g)
